≈ marks a conversion by molar mass, not a printed value.
Assays:
[1] = Oral kinetic assay in mice: plasma concentration of ACX after oral delivery of FCX or ACX-Ac; type: in vivo, mice Hsd: ICR (CD-1); settings: for AUCt, area under the concentration-time curve from 0 to the time of the last quantifiable observation, of ACX / Cmax: ACX measured in plasma after the named compound, oral (intragastric), single 10 mg/kg, sunflower oil; for AUCt, area under the concentration-time curve from 0 to the time of the last quantifiable observation, of ACX: linear-log trapezoidal rule; for Cmax: noncompartmental analysis, read-out: Cmax, maximum observed plasma concentration of ACX
Method: Immunocompetent mice from the strain Hsd: ICR (CD-1) (females, 6-7 weeks old from ENVIGO), were housed under sterile conditions at a constant temperature of 20-22° C. and relative humidity (45-65%) under daily cycles of light/darkness (12 hours). Sterilized water and food were available ad libitum.
ACX-Ac was dissolved at 1 mg/mL in sunflower oil and sterilized by filtration. FCX was dissolved at 2 mg/mL in sunflower oil and sterilized by filtration. Animals were weighted before the assay to determine the appropriate dispensing volume at 5 mL/kg (FCX) or 10 ml/kg (ACX-Ac). Formulations were administered once, intragastrically, at 10 mg/kg. Blood was collected at different time points, as stated in Table 1. It was extracted either through the facial vein or by intracardiac puncture (end points), on recipients containing 5 μL of 0.5 M EDTA.
Blood samples were analyzed by HPLC-MS/MS following proprietary analytical methods and the concentration of ACX in each sample was determined. A non-compartmental pharmacokinetic analysis was carried out using individual plasma concentrations versus sampling times by means of the PKPlus® software version 2.0 (Simulations Plus, Lancaster, CA 93534, USA).

[2] = Solubility in different lipid vehicle formulations (HPLC assay of the filtered sample); type: physicochemical; settings: about 25 mg compound in 1 mL
Method: About 25 mg of compound was weighted into a glass vial and 1 mL of the lipophilic solvent was added to the vial containing the compound. The vial was vortexed for 1 minute followed by sonication for 30 minutes. The resulting solution was visually observed for any undissolved particles. The sonicated sample was filtered through a 0.22 μm PTFE filter and 500 μL of this filtered sample was dissolved with 25 mL of a EtOH: hexane (80:20) solution (“dilution 1”). 1 mL of “dilution 1” was dissolved with 10 mL of ACN to obtain “dilution 2”. 1 mL of “dilution 2” was filtered through a 0.22 μm PTFE filter and directly used for assay by HPLC. The concentration was calculated by extrapolation from a calibration curve. 1.00 mg of standard compound was accurately weighted (precision scale) and diluted to 100 ppm in a volumetric flask.

[3] = DHA (fish oil), PUFA-enriched oil

administered compound detected in plasma samples ([1]; oral, 10 mg/kg in sunflower oil)	plasma levels of ACX in comparison to those obtained after FX administration ([1]; oral, 10 mg/kg in sunflower oil, FIG. 1 and Table 3)	SMILES	AUCt, area under the concentration-time curve from 0 to the time of the last quantifiable observation, of ACX [1] [µM·h]	Cmax [1] [µM]	solubility [2, 3] [mg/mL]	solubility ([2]; Labrafac Lipophile 1349) [mg/mL]	solubility ([2]; Labrafac MC60) [mg/mL]	solubility ([2]; Labrafil M 1944CS) [mg/mL]	solubility ([2]; Labrafil M 2125) [mg/mL]	solubility ([2]; Labrasol ALF) [mg/mL]	solubility ([2]; Maisine) [mg/mL]	solubility ([2]; Plurol Oleique) [mg/mL]	solubility ([2]; Sunflower oil) [mg/mL]	oral absorption of the administered compound ([1]; oral, oil formulation, 10 mg/kg)
not detected	substantially higher	CC(=O)O[C@H]1CC(C)(C)C(=C=C/C(C)=C/C=C/C(C)=C/C=C/C=C(C)/C=C/C=C(\C)C(=O)C[C@@]2(O)C(C)=CC(=O)CC2(C)C)[C@](C)(O)C1 [ACX-Ac, Amarouciaxanthin A acetate]	80.59	9.35	18.3	21.7	21.0	22.6	23.0	22.4	22.9	11.9	19.9	–
–	–	CC(=O)O[C@H]1CC(C)(C)C(=C=C/C(C)=C/C=C/C(C)=C/C=C/C=C(C)/C=C/C=C(\C)C(=O)C[C@@]23O[C@]2(C)C[C@@H](O)CC3(C)C)[C@](C)(O)C1 [FCX, fucoxanthin]	51.19	2.87	4.1 (≈ 6.22 mM)	16.9 (≈ 25.6 mM)	20.4 (≈ 31 mM)	17.6 (≈ 26.7 mM)	23.0 (≈ 34.9 mM)	22.3 (≈ 33.8 mM)	23.0 (≈ 34.9 mM)	20.7 (≈ 31.4 mM)	5.0 (≈ 7.59 mM)	negligible
–	–	CC1=CC(=O)CC(C)(C)[C@@]1(O)CC(=O)/C(C)=C/C=C/C(C)=C/C=C/C=C(C)/C=C/C=C(\C)C=C=C1C(C)(C)C[C@H](O)C[C@@]1(C)O [ACX, Amarouciaxanthin A]	–	–	7.2 (≈ 11.7 mM)	19.0 (≈ 30.9 mM)	15.9 (≈ 25.9 mM)	19.9 (≈ 32.4 mM)	20.3 (≈ 33 mM)	22.4 (≈ 36.4 mM)	19.9 (≈ 32.4 mM)	16.7 (≈ 27.2 mM)	9.2 (≈ 15 mM)	–
